Laboratory results taken from ChEMBL document CHEMBL3758127, “Improving selectivity of dopamine D3 receptor ligands” (Bioorg Med Chem Lett, 2016).

Assays:
D(2) dopamine receptor = D(2) dopamine receptor (Homo sapiens, UniProt P14416); experiment: Displacement of [3H]-spiperone from human dopamine D2S receptor expressed in HEK293 cell membranes
D(3) dopamine receptor = D(3) dopamine receptor (Homo sapiens, UniProt P35462); experiment: Displacement of [3H]-spiperone from human dopamine D3 receptor expressed in CHO cell membranes
Sequence of D(3) dopamine receptor (P35462 whole entry): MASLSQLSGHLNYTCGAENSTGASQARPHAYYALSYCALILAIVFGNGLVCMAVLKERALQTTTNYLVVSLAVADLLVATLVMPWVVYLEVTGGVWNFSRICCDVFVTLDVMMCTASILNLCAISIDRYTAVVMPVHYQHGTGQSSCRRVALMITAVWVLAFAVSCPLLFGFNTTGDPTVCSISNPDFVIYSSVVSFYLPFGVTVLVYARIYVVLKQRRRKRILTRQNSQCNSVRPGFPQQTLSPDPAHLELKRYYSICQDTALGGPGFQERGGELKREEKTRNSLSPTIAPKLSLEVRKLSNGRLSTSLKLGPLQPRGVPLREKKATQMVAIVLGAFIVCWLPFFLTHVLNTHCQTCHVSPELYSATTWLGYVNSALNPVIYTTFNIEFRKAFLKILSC

[1] = target: T1, Alpha-1A adrenergic receptor (Homo sapiens, UniProt P35348); experiment: Displacement of [3H]-prazosin from human ADRA1A receptor
T1 sequence (P35348 whole entry): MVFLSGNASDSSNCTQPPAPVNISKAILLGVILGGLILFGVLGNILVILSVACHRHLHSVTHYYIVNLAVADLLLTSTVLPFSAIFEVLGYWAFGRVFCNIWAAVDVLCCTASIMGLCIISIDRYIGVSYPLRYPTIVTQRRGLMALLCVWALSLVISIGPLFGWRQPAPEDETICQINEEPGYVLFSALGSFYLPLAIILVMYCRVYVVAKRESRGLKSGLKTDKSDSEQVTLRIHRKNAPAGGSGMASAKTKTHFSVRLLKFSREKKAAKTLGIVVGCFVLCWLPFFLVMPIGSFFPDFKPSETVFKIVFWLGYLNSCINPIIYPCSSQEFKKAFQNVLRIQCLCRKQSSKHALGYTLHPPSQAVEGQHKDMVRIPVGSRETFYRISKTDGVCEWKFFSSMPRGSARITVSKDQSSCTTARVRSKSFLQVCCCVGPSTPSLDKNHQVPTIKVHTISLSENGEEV

Homo sapiens [2] = species on record: Homo sapiens; experiment: Selectivity ratio of Ki for human dopamine D2S receptor to Ki for human dopamine D3 receptor
Homo sapiens [3] = species on record: Homo sapiens; experiment: Selectivity ratio of Ki for human ADRA1A receptor to Ki for human dopamine D3 receptor
hERG (KCNH2) = hERG (KCNH2) (Homo sapiens, UniProt Q12809); experiment: Inhibition of dofetilide binding to human ERG at 1 uM; details: probe dofetilide
Sequence of hERG (KCNH2) (Q12809 whole entry): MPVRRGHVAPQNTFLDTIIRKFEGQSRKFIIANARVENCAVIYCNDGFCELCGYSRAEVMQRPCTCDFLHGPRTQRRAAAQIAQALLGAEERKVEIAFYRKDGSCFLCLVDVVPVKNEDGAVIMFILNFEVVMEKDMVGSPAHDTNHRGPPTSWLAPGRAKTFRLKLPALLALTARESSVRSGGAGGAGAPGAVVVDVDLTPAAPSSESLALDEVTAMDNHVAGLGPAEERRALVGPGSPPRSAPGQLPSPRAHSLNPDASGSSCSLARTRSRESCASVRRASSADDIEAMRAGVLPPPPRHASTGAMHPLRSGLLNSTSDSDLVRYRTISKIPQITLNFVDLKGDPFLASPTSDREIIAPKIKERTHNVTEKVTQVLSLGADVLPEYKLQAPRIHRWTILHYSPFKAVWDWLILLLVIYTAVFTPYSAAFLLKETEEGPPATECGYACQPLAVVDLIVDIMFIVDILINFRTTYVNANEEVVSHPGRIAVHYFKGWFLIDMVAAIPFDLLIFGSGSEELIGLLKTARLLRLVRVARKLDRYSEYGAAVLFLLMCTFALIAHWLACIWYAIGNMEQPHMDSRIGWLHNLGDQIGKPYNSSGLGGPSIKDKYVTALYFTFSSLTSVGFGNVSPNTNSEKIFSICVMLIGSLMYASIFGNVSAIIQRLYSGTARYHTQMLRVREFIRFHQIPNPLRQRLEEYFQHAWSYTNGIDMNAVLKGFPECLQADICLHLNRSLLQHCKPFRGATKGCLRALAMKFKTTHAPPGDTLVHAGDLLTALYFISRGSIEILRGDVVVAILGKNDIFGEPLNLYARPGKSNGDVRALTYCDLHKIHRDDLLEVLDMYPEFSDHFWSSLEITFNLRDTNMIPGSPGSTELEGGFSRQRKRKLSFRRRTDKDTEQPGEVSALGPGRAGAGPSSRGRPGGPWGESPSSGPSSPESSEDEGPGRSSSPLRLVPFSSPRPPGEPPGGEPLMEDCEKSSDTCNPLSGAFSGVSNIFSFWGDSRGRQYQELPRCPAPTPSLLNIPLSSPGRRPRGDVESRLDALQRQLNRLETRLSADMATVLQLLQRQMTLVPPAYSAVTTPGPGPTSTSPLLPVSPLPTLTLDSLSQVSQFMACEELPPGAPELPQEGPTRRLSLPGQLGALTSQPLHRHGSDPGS

Sequence of D(2) dopamine receptor (P14416 whole entry): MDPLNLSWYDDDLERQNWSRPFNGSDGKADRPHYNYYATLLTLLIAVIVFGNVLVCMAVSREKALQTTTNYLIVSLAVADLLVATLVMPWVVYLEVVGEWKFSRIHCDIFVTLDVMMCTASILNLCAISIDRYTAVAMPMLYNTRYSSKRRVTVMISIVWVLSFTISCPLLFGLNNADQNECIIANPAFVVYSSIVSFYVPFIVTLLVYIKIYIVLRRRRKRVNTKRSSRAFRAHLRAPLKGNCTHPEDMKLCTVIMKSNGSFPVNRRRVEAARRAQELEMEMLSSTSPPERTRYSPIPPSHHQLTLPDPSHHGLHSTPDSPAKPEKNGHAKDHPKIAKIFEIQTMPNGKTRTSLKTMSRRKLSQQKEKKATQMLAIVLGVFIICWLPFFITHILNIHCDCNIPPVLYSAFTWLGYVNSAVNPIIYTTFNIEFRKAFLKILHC

| Ki (D(2) dopamine receptor; read-out: Ki) | Ki (D(3) dopamine receptor) | Ki [1] | Ratio Ki (Homo sapiens [2]) | Ratio Ki (Homo sapiens [3]) | Ki (D(2) dopamine receptor; hek293) | Structure (SMILES) | inhibition at 1 µM (hERG (KCNH2)) |
| --- | --- | --- | --- | --- | --- | --- | --- |
| 12100 nM | 10.4 nM | 166 nM | 1170 | 16 |  | O=C(NCCCCN1CCN(c2ccc(Cl)cc2)CC1)c1ccc2ccccc2c1 |  |
| 95 nM | 1.3 nM | 19 nM | 73 | 15 |  | O=C(NCCCCN1CCN(c2cccc3[nH]ccc23)CC1)c1ccc2ccccc2c1 |  |
| 911 nM | 3.9 nM | 1030 nM | 234 | 264 |  | CCOC(=O)Nc1cccc(N2CCN(CCCCNC(=O)c3ccc4ccccc4c3)CC2)c1 |  |
| 1550 nM | 12 nM | 116 nM | 130 | 10 |  | COc1ccccc1N1CCN(CCCCNC(=O)N(C)c2ccccc2)CC1 |  |
|  | 1.08 nM | 104 nM |  |  |  | O=C(NCCCCN1CCN(c2cccc(Cl)c2Cl)CC1)c1ccc2ccccc2c1 |  |
| 34 nM | 87 nM | 10.3 nM | 0.4 | 0.1 |  | COc1ccccc1N1CCN(CCCCCOc2ccc3ccccc3c2)CC1 |  |
| 1550 nM | 1.1 nM | 283 nM | 1400 | 260 |  | O=C(NCCCCN1CCN(c2cccc(C(F)(F)F)c2)CC1)c1ccc2ccccc2c1 | 51% |
| 238 nM | 0.7 nM | 29.9 nM | 340 | 43 |  | O=C(NCCCCN1CCN(c2ccccc2Cl)CC1)c1ccc2ccccc2c1 |  |
| 404 nM | 0.73 nM | 29.9 nM | 550 | 41 |  | Cc1ccccc1N1CCN(CCCCNC(=O)c2ccc3ccccc3c2)CC1 |  |
| 373 nM | 0.2 nM | 1520 nM | 1900 | 7600 |  | O=C(NCCCCN1CCN(c2cccc(O)c2)CC1)c1ccc2ccccc2c1 | 30% |
| 55 nM | 1.6 nM | 160 nM | 34 | 100 |  | CS(=O)(=O)Nc1cccc(N2CCN(CCCCNC(=O)c3ccc4ccccc4c3)CC2)c1 |  |
| 13 nM | 1.3 nM | 5 nM | 10 | 4 |  | COc1ccccc1N1CCN(CCCCNC(=O)Nc2cccc(Cl)c2)CC1 |  |
|  | 123 nM | 418 nM |  | 3 | Not Active | COc1ccccc1N1CCN(CCCCNC(=O)CC(C)C)CC1 |  |
| 131 nM | 3.5 nM | 158 nM | 37 | 45 |  | O=C(NCCCCN1CCN(c2cccc3[nH]c(=O)[nH]c23)CC1)c1ccc2ccccc2c1 |  |
| 310 nM | 1.23 nM | 38.5 nM | 250 | 31 |  | O=C(NCCCCN1CCN(c2ccccc2F)CC1)c1ccc2ccccc2c1 |  |
| 5030 nM | 12.7 nM | 46.7 nM | 400 | 3.7 |  | O=C(NCCCCN1CCN(c2ccccc2O)CC1)c1ccc2ccccc2c1 |  |
| 168 nM | 0.9 nM | 963 nM | 190 | 1070 |  | COc1ccccc1N1CCN(CCCCNC(=O)C2CCCCC2)CC1 | 82% |
| 482 nM | 1.8 nM | 81 nM | 270 | 45 |  | COc1ccccc1N1CCN(CCCCNC(=O)N2CCOCC2)CC1 |  |
| 322 nM | 2 nM | 65.5 nM | 161 | 33 |  | COc1ccccc1N1CCN(CCCCNC(=O)CC2CCCCC2)CC1 |  |
| 52 nM | 0.5 nM | 211 nM | 100 | 420 |  | O=C1Cc2c(cccc2N2CCN(CCCCNC(=O)c3ccc4ccccc4c3)CC2)N1 |  |
| 3320 nM | 4.7 nM | 50.2 nM | 700 | 11 |  | O=C(NCCCCN1CCN(c2cccc(Cl)c2)CC1)c1ccc2ccccc2c1 |  |
| 302 nM | 1.33 nM | 230 nM | 230 | 170 |  | Cc1cccc(N2CCN(CCCCNC(=O)c3ccc4ccccc4c3)CC2)c1C |  |
